Measurements reported in patent publication US20090264473A1, “Novel Crystalline Forms of Antidiabetic Compounds” (priority 2006, published 2009).
Where a name gives a salt, the structure may show the parent alone.

Experiments:
chemical stability = format: physicochemical
[1] = hygroscopicity (weight gain in humid environment); format: physicochemical
[2] = bioavailability in laboratory studies in rats; format: in vivo
[3] = stability of crystal form; format: physicochemical
[4] = bioavailability in animals; format: in vivo
[5] = bioavailability in laboratory studies in dogs; format: in vivo
water solubility = format: physicochemical

Row | chemical stability (chemical stability) | chemical stability on storage (chemical stability; 8 months at 40° C. and 75% RH) | hygroscopicity [1] | bioavailability [2] | bioavailability [4] | bioavailability [5] | weight gain when placed in humid environment ([1]; environment with up to 95% RH) | water solubility (water solubility; native pH) | water solubility (water solubility; neutral pH) | SMILES | stability with respect to retaining crystal form [3]
1 | chemically stable | remaining unchanged | non-hygroscopic |  |  |  |  |  |  | CCCc1nc(Oc2ccc(Cl)cc2)ccc1-c1noc2cc(Cl)c(O[C@@H](C)C(=O)O)cc12 [benzenesulfonate salt] | 
2 |  |  |  | good bioavailability | good bioavailability | good bioavailability | about 0.2 wt % | very low water solubility | low water solubility | CCCc1nc(Oc2ccc(Cl)cc2)ccc1-c1noc2cc(Cl)c(O[C@@H](C)C(=O)O)cc12 [Crystalline Free Acid Anhydrate, (2S)-2-({6-chloro-3-[6-(4-chlorophenoxy)-2-propylpyridin-3-yl]-1,2-benzisoxazol-5-yl}oxy)propanoic acid] | stable with respect to retaining their crystal form
